US20020048812A1, “Isolation and in vitro differentiation of conditionally immortalized murine olfactory receptor neurons” (priority 2000, published 2002)
Entries after “also recorded” stand apart in the source; their conditions may differ.

What was measured:
Format in all cases: cell-based, mouse
3NA12 cells = experiment: Calcium imaging (Fura-2) of odorant responses in clone 3NA12; conditions: 10 μM single odorant; for Cells responding to each odorant: 1256 cells; for Cells responding to the odorant (increase in intracellular calcium concentration): total of 1256 cells in nineteen experiments, permissive conditions
Experimental: Prior to experiments (2-4 days), cells were plated onto glass coverslips and incubated in permissive conditions. To prepare for stimulation, cells were loaded with Fura-2 ([…]) for 30 minutes at 33° C., washed, and allowed to equilibrate for a further 30 minutes at room temperature. At the beginning of the experiment, cells were washed (W) to determine whether the mechanical disturbance associated with changing solution affected intracellular calcium concentrations.
To determine whether cells from the 3NA12 clone were capable of functional responses to odorants, single odorants were applied to cells loaded with Fura-2. […] Since the onset of odorant receptor expression is at c. E13 in the rat (Strotmann et al., 1995), and each of the components of the signal transduction pathway is present in cells cultured in permissive conditions, cells at permissive conditions were chosen for all subsequent experiments.
Cloned olfactory receptor neurons were plated onto glass coverslips up to one week before imaging. On the day of analysis, the culture medium was removed and replaced with MDV containing 2 μM Fura-2-AM (Molecular Probes, Eugene, Oreg.) and 0.2% Pluronic F-127 (Sigma) dissolved in DMSO. Cells were incubated at appropriate culture temperatures (33° C. or 37° C.) for at least 30 minutes, rinsed and allowed to equilibrate in medium for 30 minutes prior to experiments. Additionally, to ensure that a response could not be induced mechanically, each experiment was started by washing the cells with bath solution in the same manner used in odorant application. For solution exchange, 5 ml of bath solution or odorant test solution was pipeffed manually into the bath (volume, 300 μl) fitted with a continual suction pump. This ensured complete replacement of the bath solution with the incoming solution without altering bath volume. Single odorants were applied to the cloned cell line 3NA12 and mixtures of odorants were applied to primary cultures of mouse olfactory bulb neurons and rat ORNs. […] When single odorants were used, they were taken from Mixture 2. Stock solutions of odorants (20 mM in DMSO) were made up every second day and diluted 1:2000 in bath solution (final concentration, 10 μM each) within seconds of application. The bath solution contained 140 mM NaCl, 5 mM KCl, 2 mM CaCl2, 10 mM HEPES and 10 mM glucose at pH 7.4. Calcium imaging was performed as described previously (Krautwurst et al., 1998; Grynkiewicz et al., 1985), in which ratiometric measurements were obtained using the Zeiss/Attofluor-Ratiovision imaging system on a Zeiss Axiovert 135 microscope fitted with an F Fluor 20×/1.30 lens. Cells were illuminated at 340 nm and 380 nm and the emission at 510 nm was monitored using an intensified CCD camera. The Attofluor-Ratiovision software was used to derive the Ca^2+-dependent ratio. Solutions of CaCl2 (1 mM) and EDTA (1 mM) containing Fura-2 pentasodium salt ([…], Molecular Probes) were used to provide a two-point calibration of the experimental set-up as directed by the instrument manufacturer (Atto Instruments, Rockville, Md.).

[1] = system: NST+ cells in the heterogeneous culture; experiment: Counting NST+ cells (anti-NST labeling) in heterogeneous olfactory cell cultures with growth factors; conditions: for Effect on the number of NST+ cells (in words): permissive conditions (33° C.)
Experimental: FIG. 2A. Interferon causes a significant, dose-dependent increase in the number of NST+ cells in the heterogeneous culture, with an EC50 of 0.4 U.ml^−1. Cells were incubated at 33° C. and were stained with anti-NST and rhodamine-coupled secondary antibodies seven days after plating. Cell counts were obtained from ten randomly selected areas in each experiment. Data were normalized to the mean number of NST+ cells in the absence of interferon and each point represents the mean ±S.E.M from three experiments.
FIG. 2B. EGF (•) and NGF (□) both have mitogenic effects in permissive conditions over and above the effect of interferon. NST+ cells were counted as described in (A) and were normalized to baseline levels in the presence of interferon (40 U.ml^−1). […] Except for the presence of interferon (40 U.ml^−1), all experimental conditions were as in A.
To determine the optimal conditions for cell survival, growth, differentiation and maturation, cells were cultured in permissive and non-permissive conditions in the presence of interferon, EGF, NGF, BDNF and NT-3. […] The effects of EGF, NGF, BDNF and NT-3 on cell maturation in non-permissive culture conditions were
To keep the amount of expressed TAg to the minimum required for immortalization (Noble et al., 1995), heterozygous offspring from homozygous male H-2K^b-tsA58 transgenic and C57B1 female mice (Charles River Laboratories, Wilmington Mass., and Jackson Laboratory, Bar Harbor, Me., respectively) were used to generate the conditionally immortal neuronal cell culture. Cells were isolated in a procedure modified from a previously established technique (Ronnett et al., 1991). Briefly, post-natal day 1-3 animals were decapitated and the heads were sectioned longitudinally. The olfactory epithelium and nasal septum were removed and placed in an Eppendorf tube containing 500 μl culture medium. The culture medium consisted of Minimum Essential Medium in which the L-valine has been replaced by D-valine (MDV). This was supplemented with 10% fetal bovine serum (FBS), 4 mM glutamine, kanamycin (100 μg.ml^−1), gentamicin (50 U.ml^−1) and amphotericin B (2.5 μg.ml^−1; all from Gibco BRL, Gaithersburg, Md.). The MDV medium was chosen because fibroblasts lack D-amino acid oxidase and the reduction of L-valine inhibits fibroblast survival and growth (Gilbert et al., 1986). Tissue was centrifuged at low speed for two minutes and then most of the medium was removed. The cell pellet was chopped briefly with a pair of fine-point scissors before being resuspended in supplemented cell culture medium. The resultant cell clumps and cell suspension were plated out onto 2- or 4-chamber glass slides (Nunc, Naperville, Ill.) or plastic dishes (Fisher Scientific, Pittsburgh, Pa.). To enhance ORN adhesion, all cell culture materials were pretreated with laminin (0.125 mg.ml^−1 in serum-free media, Collaborative Biomedical Products, Bedford, Mass.) for at least 12 hours, prior to plating. Cells were maintained in culture at 33° C. (the permissive temperature for the SV40 TAg) and, to stimulate transcription of the transgene, the culture medium was supplemented with murine γ-interferon (40 U.ml^−1, Genzyme, Cambridge, Mass.). Provisionally, in permissive conditions, the cell culture medium was supplemented with epidermal growth factor (EGF, 20 ng.ml^−1, Gibco BRL) and 2.5 S nerve growth factor (NGF, 10 ng.ml^−1, Gibco BRL) before thorough characterizations of their effects were made in later experiments.
To determine optimum conditions for cell survival, growth, differentiation or maturation, numerous combinations of culture conditions were tested. These included i) removal of the olfactory epithelium from newborn, 4-week-old, and sexually mature animals, ii) subjecting tissue to digestion by trypsin (Gibco BRL, 0.5 g.l^−1 for 60 minutes at 37° C.), iii) addition of growth factors to the culture medium and iv) the use of diverse culture media. […]

[2] = system: olfactory marker protein (OMP); experiment: OMP expression by Western blot in cells in non-permissive conditions; conditions: 37° C., heterogeneous cell cultures, 15 μg protein per lane
Experimental: FIG. 2C. Effects of EGF, NGF, BDNF and NT-3 on OMP expression as determined by Western blot. Cells were maintained in non-permissive conditions at 37° C. in the absence of growth factors (C) or in presence of EGF (E), NGF (N), BDNF (B) or NT-3 (3). Samples were isolated from the heterogeneous cell cultures and from olfactory tissue (T), and were separated on a SDS-polyacrylamide gel (15 μg protein per lane). OMP is a 19 kD protein and, in situ, is expressed only in mature olfactory receptor neurons. OMP was not detected in control cells (C), cultured in the absence of growth factors or in cells incubated in the presence of EGF.
assayed by Western blot detection of olfactory marker protein (OMP), a marker of mature olfactory receptor neurons (Margolis, 1988).
Cells were always maintained in permissive culture conditions except when attempts were made to obtain a differentiated phenotype through transgene inactivation. In this case, cells were incubated in non-permissive culture conditions, i.e. at 37° C. in γ-interferon-free media for seven days, before the effects of transgene inactivation were determined. The effects of EGF, NGF, BDNF and NT-3 in promoting cell maturation/differentiation were assessed and, based on those experiments, BDNF and NT-3 were routinely added to the culture medium for cells in non-permissive culture conditions. In both culture environments, the air was kept humidified and contained 5% CO2.
Cells were scraped into a cold isolation buffer containing 20 mM Na(N-tris[hydroxymethyl]methyl-2-aminoethanesulfonic acid) (Na TES), 10 mM mannitol and 1% Triton X-100 at pH 7.4. The isolation buffer was supplemented with phenylmethylsulfonyl fluoride (30 μg.ml^−1), leupeptin (2 μg.ml^−1), benzamidine (16 μg.ml^'1), pepstatin (2 μg.ml^−1), and lima bean trypsin inhibitor (50 μg.ml^−1) to prevent protease activity. After five freeze/thaw cycles, cell extracts were centrifuged at 2,000 g for 5 minutes to pellet nuclei and cell debris. […]

[3] = 33° C., 100 ng.ml^−1, in the presence of 40 U.ml^−1 interferon, normalized to that point

CC(=O)c1ccccc1 [acetophenone]
Cells responding to each odorant (3NA12 cells): ~1% | Cells responding to the odorant (increase in intracellular calcium concentration) (3NA12 cells): 15 cells

CCCCCCC=O [heptaldehyde]
Cells responding to each odorant (3NA12 cells): ~1% | Cells responding to the odorant (increase in intracellular calcium concentration) (3NA12 cells): 17 cells

EGF: epidermal growth factor (Gibco BRL)
Normalized # of NST+ Cells ([1]; 33° C., 10 ng.ml^−1, in the presence of 40 U.ml^−1 interferon, normalized to that point): 1.7 ± 0.2 | Effect on the number of NST+ cells (in words) [1]: increased the number of NST+ cells; also recorded: greatest increase of NST+ cells

Interferon: murine γ-interferon (Genzyme), stimulates transcription of the transgene
EC50 (increase in number of NST+ cells) ([1]; 33° C., permissive, seven days after plating, sigmoidal curve fit): 0.4 U.ml^−1 | Normalized # of NST+ Cells ([1]; 33° C., interferon 40 U.ml^−1, normalized to NST+ cells cultured in the absence of interferon): 2.0 ± 0.2 | Normalized # of NST+ Cells ([1]; 37° C., interferon 40 U.ml^−1, normalized to absence of interferon): 1.9 ± 0.1 | Effect on the number of NST+ cells (in words) [1]: significant increase

L-carvone
Cells responding to each odorant (3NA12 cells): ~1% | Cells responding to the odorant (increase in intracellular calcium concentration) (3NA12 cells): 16 cells

B1: NGF: 2.5 S nerve growth factor (Gibco BRL) (protein, UniProt P01139 122-241, looked up)
Beta-nerve growth factor: SSTHPVFHMGEFSVCDSVSVWVGDKTTATDIKGKEVTVLAEVNINNSVFRQYFFETKCRASNPVESGCRGIDSKHWNSYCTTTHTFVKALTTDEKQAAWRFIRIDTACVCVLSRKATRRG
modifications: Beta-nerve growth factor
Normalized # of NST+ Cells [1, 3]: 1.5 ± 0.2 | Effect on the number of NST+ cells (in words) [1]: increased the number of NST+ cells | OMP expression detected by Western blot (in words) [2]: barely detectable

B2: BDNF: brain-derived neurotrophic factor (Peprotech) (protein, UniProt P23560 129-247, looked up)
Neurotrophic factor BDNF: HSDPARRGELSVCDSISEWVTAADKKTAVDMSGGTVTVLEKVPVSKGQLKQYFYETKCNPMGYTKEGCRGIDKRHWNSQCRTTQSYVRALTMDSKKRIGWRFIRIDTSCVCTLTIKRGR
modifications: Neurotrophic factor BDNF
Normalized # of NST+ Cells [1, 3]: 1.3 ± 0.2 | Normalized # of NST+ Cells ([1]; 37° C., 100 ng.ml^−1): 1.3 ± 0.2 | Effect on the number of NST+ cells (in words) [1]: no effect | OMP expression detected by Western blot (in words) [2]: significant expression of OMP could be observed; also recorded: to a lesser degree, was detected
